Legend:
granulocytes = assay: Citrullinated histone H3 flow cytometry blood test (extracellular trap formation); format: cell-based, human
Description: Detection of extracellular traps formation was incorporated to improve flow cytometry analysis of granulocyte subpopulations. […] This example describes detection of granulocyte activation following exposure of human blood to exogenous stimulant, using dihydrorhodamine 123, propidium iodide, and citrullinated histone H3 staining.
Peripheral blood samples were collected, diluted, maintained, treated, lysed, and fixed as previously described. Samples were blocked as previously described and incubated with staining buffer containing a 1:400 dilution of Cit-H3 antibody (Cayman Chemical, Michigan, USA) for 30 min at RT. Following two wash steps, the samples were incubated with APC-conjugated secondary (1:200) (Columbia Biosciences, Maryland, USA) for 30 min and subsequent washing steps were performed to remove unbound antibodies. Cells were washed twice and resuspended in PBS prior to analysis using a BD Accuri C6 Flow Cytometer (BD Biosciences). Statistical analysis was performed using the FlowJo v10 (FlowJo). NETs were defined by the in-tandem use of the classis extracellular DNA/viability marker PI(+) and the extracellular trap marker Cit-H3(+). NET formation was quantified as a fold-change relative to the mean of the negative control samples.

white blood cells = assay: DHR 123 flow cytometry blood test: RH 123 fluorescence (ROS generation), channel 1 FL1-A; format: cell-based, human
Protocol: See FIG. 1 and FIG. 2 for exemplary flow diagrams of the method. Whole peripheral blood samples were obtained from subjects and collected in lithium heparin tubes. Samples were diluted 1:100 in electrolyte solution supplemented with 10% heat-inactivated fetal-bovine serum (FBS). Samples were incubated with 5 μg of dihydrorhodamine 123 (DHR 123) at 37° C. under 5% CO2 for 15 min. Cells were treated with 1 μM Phorbol-12-Myristate-13-Acetate (PMA), an exogenous stimulant, or an equal volume of PBS (negative control), and incubated for 30 min to 1 hr.
RBCs of the sample were lysed, fixed, and removed prior to flow cytometry analysis. Briefly, cells were lysed and partially fixed using 3% (v/v) lysis buffer and 1% (v/v) formaldehyde in phosphate-buffered saline (PBS). Samples were incubated for 2 min or until turbidity of the solution was resolved indicating essentially complete lysis of RBCs, and the sample centrifuged at 300×g for 5 min at room temperature (RT). RBC-containing supernatant was discarded, and remaining leukocytes were fixed using 3.7% (v/v) formaldehyde and centrifuged at 300×g at RT for 5 min. Samples were washed twice in FBS and centrifuged at 300×g at RT for 5 min. After washing, the cells were blocked with FC block (Invitrogen, USA) and 2% FBS for 30 min on ice and then incubated with staining buffer containing manufacturer-specified dilutions of fluorophore-conjugated antibodies specific for granulocytes (e.g., neutrophils, basophils, and/or eosinophils) or granulocyte activation (e.g., degranulation). Cells were washed twice and resuspended in PBS prior to analysis using a BD Accuri C6 Flow Cytometer (BD Biosciences, USA). Statistical analysis was performed using the FlowJo v10 (FlowJo, Oregon, USA).
A sample of whole blood was treated with DHIR 123 or mock at 37° C. for 15 min, then treated with phorbol 12-myristate 13-acetate (PMA) and incubated for 25 min. Red and white blood cells were lysed and fixed as described above. Flow cytometry results are shown in FIGS. 3A-3D for negative control (FIG. 3A), DHR 123 only treated control (FIG. 3B), DHR 123+PMA treated (FIG. 3C), as well as an overlap plot of each (FIG. 3D).
Provided below is an exemplary protocol for DHR 123 treatment and cell surface marker staining for DHR 123 flow cytometry blood test. • 1. Obtain a blood sample from a subject; e.g., • 1 mL blood sample for each person was obtained. • 2. Treat with DHR 123 and/or stimulant (e.g., PMA); e.g., • 100 μL whole blood was used for each group: 1) cell only control; 2) DHR 123 loaded cells; 3) DHR 123 loaded cells stimulated with stimulant (e.g., PMA). […] Fix and lyse the cells; e.g., • After stimulant treatment, the cells were fixed and red blood cells were concurrently lysed by adding lysis/fixation solution (e.g., 850 μL (800 μl PBS, 25 μL lyse solution, […])) and incubating 5 min at room temperature. • 4. Prepare cells for staining; e.g., • Cells were centrifuged and the supernatant discarded; • Formaldehyde solution (e.g., 500 μL, 3.7% formaldehyde) was added and incubated for 5 more minutes for fixation; • Cells were centrifuged and the supernatant discarded; • Cells were washed with 350 μL PBS twice, and then centrifuged before discarding the supernatant; • Cells were centrifuged and the supernatant discarded; • 5. Stain the cells; e.g., • 80 μL staining buffer (PBS+0.1% albumin+0.01% tween 20) was added, along with 5 μL of antibody solution for CD16, CD123 and CD193 and the sample incubated for 30 min at room temperature; • 6. Prepare cells for flow cytometry; e.g., • Cells were washed with PBS, centrifuged and the supernatant discarded; • Cells were resuspended in 125 μL PBS for subsequent flow cytometer analysis.
Flow cytometry analysis of human blood samples was performed following exposure to exogenous dust mite (“DM”) stimulant using time course measurements of RH 123 and PI fluorescence. […]

[1] = after 40-minute stimulation of PMA

CCCCCCCCCCCCCC(=O)O[C@@H]1[C@@H](C)[C@@]2(O)[C@@H](C=C(CO)C[C@]3(O)C(=O)C(C)=C[C@@H]23)[C@@H]2C(C)(C)[C@]12OC(C)=O [PMA, Phorbol-12-Myristate-13-Acetate]
RH 123 (FL1-A) and PI (FL3-A) fluorescence signal compared with cell-only group (granulocytes): higher
percentage cells positive for citrullinated histone H3 signals (granulocytes; after gating on FL3-A and FL4-A): high
PI staining signal (channel 3, FL3-A) (granulocytes; repeat, 8 μL stimulant/100 μL blood): stronger signals
activation of granulocyte populations (summary of Example 2) (white blood cells): induced the activation of all granulocyte populations
stimulation of lymphocytes (in words) (white blood cells; CD33(−) lymphocyte population (M1)): not stimulated
Mean FL1-A (0.5 h) (white blood cells; R123, 0.5 h, PMA, RWP1 2.5 μL, MLK, CUC, BAS 5 μL per 100 μL blood (Table 5)): 58,792.96
Mean FL1-A (1.5 h) (white blood cells; R123, 1.5 h, PMA, RWP1 2.5 μL, MLK, CUC, BAS 5 μL per 100 μL blood (Table 5)): 168,741.44
Mean FL1-A (2.5 h) (white blood cells; R123, 2.5 h, PI stained, PMA, RWP1 2.5 μL, MLK, CUC, BAS 5 μL per 100 μL blood (Table 5)): 361,510.02
MFI (0.5 h) FL1-A (white blood cells; RH 123, 0.5 h incubation, PMA or DM 2 μL/100 μL blood): 5,076.27
MFI (1.5 h) FL1-A (white blood cells; RH 123, 1.5 h incubation, PMA or DM 2 μL/100 μL blood): 14,093.83
MFI (2.5 h) FL1-A (white blood cells; RH 123, 2.5 h, increased stimulant, 8 μL DM or RWP per 100 μL blood (Table 7)): 10,553.44
MFI (2.5 h) FL1-A (white blood cells; RH 123, 2.5 h incubation, PI stained, PMA or DM 2 μL/100 μL blood): 9,353.98
RH 123 average intensity of peak (white blood cells; [1]): about 10^6 unit
RH 123 average intensity relative to negative control (DHR 123 only) (white blood cells; [1]): ~500 times
RH 123 fluorescence / ROS generation (in words) (white blood cells; vs cells loaded with DHR 123 only): strong green fluorescence
